Measurements taken from PubChem BioAssay AID463136 (University of Pittsburgh Molecular Library Screening Center, 2010).
Inconclusive results are not listed. Active and inactive are the calls of the source. The rule behind the calls is not given here.

What was measured:
[1] = blockers of dynein-driven microtubule transport – imaging, high-content imaging, dose response (AID 463136); settings: HCS imaging, dynein-mediated cargo transport inhibition; inhibition at max concentration; at 50 µM; stronger effect = higher value;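 note: mouse mammary adenocarcinoma 3617.4 cells expressing GFP-tagged rat glucocorticoid receptor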; for inhibition: reference of the scale not given here
[2] = test system: HCS imaging, dynein-mediated cargo transport inhibition; test: as above

| SMILES | inhibition [1] | IC50 [2] |
| --- | --- | --- |
| CC(=O)N(C1CC(C)C(C#N)(C#N)C1(C#N)C#N)N(C)C (stereo not given) | 5.79% | > 50 µM (inactive) |
| Cc1ccc(C2=NN(C(=O)CCl)C(c3cccs3)C2)o1 (stereo not given) | 80.3% | 8.74 µM |
| CC(C(Sc1ccccc1N)c1ccccc1)[N+](=O)[O-] (stereo not given) | 84.4% | 24.7 µM |
| CC[n+]1c(/C=C2\Sc3ccccc3N2C)ccc2cccc(C)c21 | 28.3% | 0.765 µM |
| COc1cc(/C=C/C(=O)c2ccc(F)cc2)cc(OC)c1OC | 69.5% | 36.7 µM |
| Cc1ccc(NC(=O)c2cc(N3C(=O)C=CC3=O)ccc2N2CCOCC2)cc1 | -6.6% | > 50 µM (inactive) |
| O=C(/C=C/c1ccccc1Cl)c1cccnc1 | 85.3% | 17.2 µM |
| O=C(/C=C/c1ccccn1)c1cc(Br)ccc1O | 69.4% | 28.3 µM |
| COc1ccc(N=C2S/C(=C\c3ccc(N4CCOCC4)o3)C(=O)N2CCc2c[nH]c3ccccc23)cc1 | 127% | 27.1 µM |
| O=C(OCn1ncc(Br)c(Br)c1=O)c1c(F)cccc1F | 81.6% | 18.5 µM |
| N#Cc1c(Cl)c(Cl)c2nnc(-c3ccc(Br)cc3)n2c1Cl | 40.1% | > 50 µM (inactive) |
| Cc1ccc(SC(=O)c2c([N+](=O)[O-])c(C)nn2C)cc1 | 6.09% | > 50 µM (inactive) |
| O=C1/C(=C\c2cccnc2)CN(Cc2ccccc2)C/C1=C\c1cccnc1 | 83.3% | 15.5 µM |
| COc1ccc(N(C(=O)CCl)C(C(=O)NC2CCCCC2)c2cccnc2)cc1 (stereo not given) | 85.5% | 13.3 µM |
| Cc1cccc(Cn2ncc(Cl)c(Cl)c2=O)c1 | 84.7% | 13 µM |
| CCCCc1c(C)c(C#N)c2nc3ccccc3n2c1Cl | -60.6% | > 50 µM (inactive) |
| N#C/C(=C\c1cccs1)C(=O)c1ccccc1Cl | 63.4% | > 50 µM (inactive) |
| COc1cccc(C2CC3C(=O)C=CC2N3Cc2ccccc2)c1 (stereo not given) | 90% | 13.3 µM |
| O=C1NC(=O)N(c2ccccc2)C(=O)/C1=C\c1ccc([N+](=O)[O-])s1 | 85.5% | 14.4 µM |
| COc1ccc(-c2csc3nc(-c4cccnc4)nc(Cl)c23)cc1OC | 84.4% | 27.5 µM |
| CC(=O)OCCCNc1cc(SCc2ccco2)c2nonc2c1[N+](=O)[O-] | 67.7% | 35.1 µM |
| O=C1NC(=O)N(c2ccccc2)C(=O)/C1=C\C=C\c1ccccc1 | 80.9% | 28.8 µM |
| O=C(CCl)N(c1ccc(Cl)cc1)c1c[nH]c2ccccc12 | 10.3% | > 50 µM (inactive) |
| CCC(=O)Nc1ccc(C(=O)Cn2ncc(Cl)c(Cl)c2=O)cc1 | 72.4% | 15.7 µM |
| Cn1c(=O)c([N+](=O)[O-])c(Cl)c2ccccc21 | 84% | 39.4 µM |
| Cc1ccc(SC(=O)c2c(C)noc2-c2cc(C)on2)cc1 | 37.3% | > 50 µM (inactive) |
| O=C(CCl)Nc1cc(SCC(O)CO)cc([N+](=O)[O-])c1 (stereo not given) | 88% | 10.5 µM |
| CC(C)CN1C(=O)/C(=C/c2c(N3CCc4ccccc4C3)nc3ccccn3c2=O)SC1=S | 131% | 26 µM |
| O=C1NC(=O)N(c2ccccc2)C(=O)/C1=C/c1ccc([N+](=O)[O-])s1 | 86.7% | 13.4 µM |
| COc1cc(/C=C2\COC/C(=C\c3ccc(O)c(OC)c3)C2=O)ccc1O | 64.3% | 39.7 µM |
